Laboratory results: the NIST ThermoML archive (doi:10.1021/je301353z)

Assay: xn = mol fraction of the nth substance listed
Conditions: 101 kPa, Liquid; for speed of sound: Sing-around technique in a fixed-path interferometer; for mass density: Vibrating tube method

O=C1CCCN1 [2-pyrrolidinone] + c1ccncc1
Conditions | mass density, 293.15 K [kg/m3] | mass density, 298.15 K [kg/m3] | mass density, 303.15 K [kg/m3] | mass density, 308.15 K [kg/m3] | speed of sound, 293.15 K [m/s] | speed of sound, 298.15 K [m/s] | speed of sound, 303.15 K [m/s] | speed of sound, 308.15 K [m/s]
x1 = 0.1333 | 1001.83 | 997.07 | 992.29 | 987.38 | 1468.5 | 1445.6 | 1426.5 | 1406.5
x1 = 0.1801 | 1008.31 | 1003.57 | 998.88 | 994.01 | 1478.1 | 1455.5 | 1436.7 | 1416.9
x1 = 0.2312 | 1015.32 | 1010.62 | 1006.02 | 1001.17 | 1488.6 | 1466.4 | 1447.9 | 1428.3
x1 = 0.2713 | 1020.76 | 1016.1 | 1011.55 | 1006.71 | 1496.9 | 1475.1 | 1456.6 | 1437.4
x1 = 0.3312 | 1028.79 | 1024.17 | 1019.7 | 1014.93 | 1509.4 | 1488.1 | 1469.8 | 1450.9
x1 = 0.3717 | 1034.17 | 1029.56 | 1025.16 | 1020.41 | 1518 | 1496.8 | 1478.8 | 1460
x1 = 0.4312 | 1041.94 | 1037.41 | 1033.04 | 1028.34 | 1530.8 | 1510 | 1491.9 | 1473.6
x1 = 0.4752 | 1047.59 | 1043.13 | 1038.77 | 1034.15 | 1540.2 | 1519.7 | 1501.8 | 1483.5
x1 = 0.5316 | 1054.74 | 1050.35 | 1046.02 | 1041.5 | 1552.3 | 1532.1 | 1514.4 | 1496.3
x1 = 0.5717 | 1059.77 | 1055.45 | 1051.12 | 1046.65 | 1560.9 | 1541 | 1523.2 | 1505.6
x1 = 0.6219 | 1065.97 | 1061.74 | 1057.4 | 1053.03 | 1571.9 | 1552.1 | 1534.4 | 1517
x1 = 0.6772 | 1072.71 | 1068.57 | 1064.23 | 1059.98 | 1583.7 | 1564.5 | 1546.7 | 1529.5
x1 = 0.7314 | 1079.26 | 1075.19 | 1070.86 | 1066.7 | 1595.4 | 1576.4 | 1558.8 | 1541.7
x1 = 0.7714 | 1084.05 | 1080.04 | 1075.69 | 1071.59 | 1603.9 | 1585.1 | 1567.6 | 1550.7
x1 = 0.8312 | 1091.16 | 1087.2 | 1082.86 | 1078.85 | 1616.4 | 1598.2 | 1580.7 | 1564.3
x1 = 0.8712 | 1095.91 | 1091.96 | 1087.64 | 1083.64 | 1624.7 | 1606.7 | 1589.3 | 1573.2
x1 = 0.9013 | 1099.48 | 1095.53 | 1091.23 | 1087.24 | 1630.8 | 1613.2 | 1596 | 1580
x1 = 0.9311 | 1103.03 | 1099.05 | 1094.78 | 1090.78 | 1636.8 | 1619.6 | 1602.4 | 1586.6
